Source: ChEMBL document CHEMBL3507680, “University of Dundee, Gates Library screen for HepG2 cell viability”

test: Human HepG2 cell viability assay in 384 well format; format: toxicity, cell-based; design: dose 125 nL, time 70.5 hour; cytotoxicity at 70.5 h: concentration not given beside the values; conditions: HepG2 cells, read-out: Inhibition

Structure (SMILES)	cytotoxicity at 70.5 h [%]
Cc1nn(C)cc1CN(C)Cc1cc2c(cc1OC(F)F)OCO2	-7.7
O=S(=O)(c1ccccc1)N1CCCN(CCCn2ccnc2)CC1	-10.3
CCC(C)CNc1ccc2oc(COC)nc2c1 (stereo not drawn)	42.8
NS(=O)(=O)c1ccc(NC(=O)CSc2ccc3c(c2)CCC3)cc1	-2.39
c1ccc(COC2CCN(c3cncc(-n4cccn4)n3)CC2)cc1	-9.06
CCNC(=O)N(C)Cc1ccc(SC)c(OC)c1	-7.42
CC(=O)c1cccc(NC(=O)CN2CCCCC2C2OCCO2)c1 (stereo not drawn)	-1.12
Cn1cnnc1C1CCN(c2cncc(-n3cccn3)n2)CC1	1.11
COc1ccc(CNC2CCN(CCc3ccncc3)CC2)cc1O	-6.38
Cc1ccc(C(CNCc2ccncc2)N2CCOCC2)s1 (stereo not drawn)	18.9
O=C(C1SCCc2sccc21)N1CCN(CCO)CC1 (stereo not drawn)	-2.81
O=C(C1SCCc2sccc21)N1CCC(O)CC1 (stereo not drawn)	1.7
O=C(CN1CCCCC1C1OCCO1)Nc1ccc(F)c(F)c1 (stereo not drawn)	-2.55
COC(=O)CCNC(=O)C1CC(=O)N(C2CCCC2)C1 (stereo not drawn)	0.402
CC(C)n1c(C2CCCN(CCS(C)(=O)=O)C2)nc2ccccc21 (stereo not drawn)	-0.395
Cc1ccc(CNC2CCN(CCc3ccncc3)CC2)cc1C	1.32
CN(CC(=O)NCc1ccccn1)CC1CCCN1c1cccnn1 (stereo not drawn)	0.56
Cc1ccc(C(CNCc2cnn(C(C)C)c2)N2CCOCC2)s1 (stereo not drawn)	-0.62
COc1ccc(C(=O)N(C)Cc2cccc(C#N)c2)c(OC)c1OC	-5.18
CCCn1nc2c(cc1=O)CN(Cc1nc(CCOC)no1)CC2	-3.53
CCN(CC)C(=O)Nc1cc2c(cc1SC)OCCO2	-6.83
Cc1cnn(C2CN(Cc3ccc4c(c3)OCCO4)C2)c1	-10.6
FC(F)(F)C1CCCn2c(CNCc3ccsc3)nnc21 (stereo not drawn)	-9.55
O=c1oc(-c2cccs2)nn1CC(O)c1ccccc1 (stereo not drawn)	-13.3

Structure (SMILES)	cytotoxicity at 70.5 h [%]
CCOc1ncccc1CNC(=O)N1CCCC1c1ccncc1 (stereo not drawn)	-8.99
CCNC(=O)NC(=O)CSC(C)c1ccccc1F (stereo not drawn)	-9.82
CCOc1cccc(C(C)NCc2ccc(OC)c(OC)c2OC)c1 (stereo not drawn)	6.82
CCNC(=O)NC(=O)CSC(C)c1c(F)cccc1F (stereo not drawn)	10.3
CCN(CC)C(=O)CCNC(=O)Cc1nc(-c2ccco2)oc1C	4.78
N#Cc1cn(CC(=O)NC2CC2)c2ccc(Br)cc2c1=O	-7.46
CCN(CC(=O)NC)C(=O)Cc1nc(-c2ccco2)oc1C	-7.15
CCc1nc(CCNC(=O)Nc2ccc(C(=O)NC)cc2C)cs1	13.7
O=C(O)c1ccn(-c2ccccc2NS(=O)(=O)c2ccccc2)n1	-0.995
Cc1cc(S(=O)(=O)N2CCCc3cc(F)cc(F)c32)sc1C(=O)O	11.1
O=C(NC1(c2nnn(Cc3ccncc3)n2)CCCC1)c1ccccc1	-1.85
CSC(C)(C)CNC(=O)NC1CCSCC1	-6.55
Cc1n[nH]c(C2CN(CC(=O)NCc3ccco3)CCO2)n1 (stereo not drawn)	15.9
CSCC(=O)N1CCCC1c1noc(C2CC2)n1 (stereo not drawn)	-4.73
O=C(NCCCn1ccnc1)N1CCCC1c1ccncc1 (stereo not drawn)	-1.54
CC(C)(C)OC(=O)NC(C)(C)c1noc(CN2CCCCC2)n1	-3.07
O=C(CCNS(=O)(=O)c1ccccc1)NCc1ccoc1	-9.84
CCS(=O)(=O)c1ccc(N2CCC(NC(C)=O)CC2)cc1	-5.9
COC1CCN(C(=O)c2c(Cl)c3ccccc3n2C)CC1	-9.88
CCNC(=O)c1cnc(Cc2ccc(F)cc2)s1	-6.25
COc1cccc(S(=O)(=O)CCN2CCC3(CC2)OCCO3)c1	-18.5
CCCC(=O)NCc1cc(Br)c(OC)c(OC)c1	-6.96
Cc1nc2c(c(C)c1CC(=O)Nc1ccc(Cl)cc1)c(=O)[nH]n2C	-3.48
c1cnn(CC2CCCCN2c2ncnc3sccc23)c1 (stereo not drawn)	-6.33
